Calls of active or inactive are those of the source.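 The calls were made as follows: active = compounds giving half or more protection of infected cells from virus-caused growth loss, again on retest; inactive = the rest.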
Test system: CEM cells HIV-1 protection, formazan growth assay
Experiment: NCI AIDS Antiviral Assay
Settings: for IC50: measured here: growth of uninfected CEM cells
Method in brief: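 Category rules: moderately active means at least 50% protection on retest, and confirmed active means 100% protection reproducibly. The underlying data came from a formazan growth assay in HIV-1-infected CEM cells.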

Structure (SMILES) | EC50 [µM] | IC50 [µM] | outcome
N=C(N)SCCc1cn2ccccc2n1 | > 851 | 42.7 | 
CCCNC(=O)c1sc(SC)nc1NC(=O)c1ccc(OC)cc1 | > 200 | > 200 | 
COc1ccc(/C=C2\Oc3cc(OC(C)=O)ccc3C2=O)cc1 | > 200 | 37.2 | 
Oc1ccccc1/C=N\NC(=S)Nc1ccc2cn[nH]c2c1 | > 200 | 126 | 
Nc1cn(C2OC(CC(c3ccccc3)(c3ccccc3)c3ccccc3)C(O)C2O)c(=O)[nH]c1=O (centres undefined) | > 138 | 28.8 | 
C1CCC2C(C1)CCCC2NC1=NCCO1 (centres undefined) | > 200 | 115 | 
NCC1CCC(C(=O)O)CC1 (centres undefined) | > 200 | > 200 | 
CC(=O)C(=Cc1cccc([N+](=O)[O-])c1)C(C)=O | > 155 | 20.4 | 
CCOC1(O)C(=O)c2ccccc2OC1(OCC)c1ccccc1 (centres undefined) | > 200 | 26.9 | 
O=c1c2ccccc2n2c(-c3ccc(O)cc3)nnc2n1-c1ccccc1 | > 200 | > 100 | 
C[N+](C)(C)CC(=O)N/N=C(\C(=O)NC1=C(Cl)C(=O)c2ccccc2C1=O)C(C#N)c1csc(-c2ccc([N+](=O)[O-])cc2)n1 (centres undefined) |  |  | inactive
C=C1CN(Cc2ccccc2)[C@@H]2CCCCC[C@H](C#N)[C@H]12 | > 200 | 123 | 
COc1ccc2c3c(c(C(=O)O)oc13)CCC2 |  |  | inactive
CN1C(=O)c2ccccc2OC12C=Cc1ccc(O)cc1O2 (centres undefined) | > 132 | 45.7 | 
O=C(C=Nc1ccccc1C(=O)[O-])c1cccs1.O=C(C=Nc1ccccc1C(=O)[O-])c1cccs1.[Zn+2] |  |  | inactive
O=C1CC2(c3ccccc3)ON=C(c3ccccc3)N2c2ccccc2N1 (centres undefined) | > 200 | 85.1 | 
CC(C)NC(=O)OCc1nnn2c1CCC2 |  |  | inactive
CCCCCCCCCCNP(=S)(NCCCCCCCCCC)c1ccccc1 |  |  | inactive
O=S(=O)(N/N=C/c1ccc(Cl)cc1Cl)c1ccccc1 |  |  | inactive
CC(=O)Nc1cc(OCC(=O)O)ccc1S(=O)(=O)c1ccc(OCC(=O)O)cc1NC(C)=O | > 200 | > 200 | 
[Pt].c1ccc([PH+](c2ccccc2)c2ccccc2)cc1.c1ccc([PH+](c2ccccc2)c2ccccc2)cc1.c1ccc([PH+](c2ccccc2)c2ccccc2)cc1.c1ccc([PH+](c2ccccc2)c2ccccc2)cc1 | > 11 | > 11 | 
COc1ccc2c(c1)[n+](=O)c(C(=O)CC(=O)C(=O)Nc1cccc(C)c1C)c(C)n2[O-] | > 117 | > 117 | 

Structure (SMILES) | EC50 [µM] | IC50 [µM] | outcome
CC(NC(=O)/C(C#N)=C/c1ccc2[nH]ccc2c1)c1ccccc1 (centres undefined) | > 42.7 | > 42.7 | 
Cn1c(=O)nc2n(-c3ccc(Cl)cc3)c3cc(Cl)ccc3nc-2c1=O |  |  | inactive
CCCC/C=C(/C(O)[C@]1(C)OC(=O)N2CCC[C@H]21)[Si](C)(C)C (some centres undefined) | > 759 | > 759 | 
N#C/C(=C/n1c(=S)[nH]c2ccccc21)C(N)=O | > 200 | > 200 | 
C=CCNC(=O)CN(CC(=O)O)C1CCCCC1N(CC(=O)O)CC(=O)O (centres undefined) | > 200 | > 200 | 
CC(=O)N(C(=O)CC(=O)N1N=C(c2ccccc2)C(N=Nc2ccccc2[N+](=O)[O-])C1=O)c1ccc(Cl)cc1 (centres undefined) | 166 | > 200 | 
O=C(O)c1cc(OS(=O)(=O)O)c(OS(=O)(=O)O)c(OS(=O)(=O)O)c1 | > 200 | 11.2 | 
CCCCCCc1ccc(O)cc1O | > 200 | 74.1 | 
Cc1ccc2nc(CN3CCCCC3)cc(=O)n2c1 | > 151 | > 151 | 
CCOC(=O)C(C)(C)/C=C\C(Cl)=C(Cl)Cl | > 200 | 117 | 
CC1(CO)NC(C(=O)O)Cc2c1[nH]c1ccccc21 (centres undefined) | > 200 | > 200 | 
C=CCNC(=S)/N=C1\N=S(C)(=O)c2ccccc21 (centres undefined) | > 891 | > 891 | 
CO[C@H]1C[C@H](O[C@H]2CC[C@]3(C=O)[C@H]4CC[C@]5(C)[C@@H](C6=CC(=O)OC6)CC[C@]5(O)[C@@H]4CC[C@]3(O)C2)O[C@H](C)[C@H]1O |  |  | inactive
CC1(C)OC(=O)NC1=O |  |  | inactive
Nc1ccc(CCN2CCN(c3cccc(C(F)(F)F)c3)CC2)cc1I |  |  | inactive
C=CN(c1ccccc1)c1nc(=O)[nH]c(=O)[nH]1 | > 200 | > 200 | 
Cn1c(=O)c2c(nc(CCCCCc3nc4c(c(=O)n(C)c(=O)n4C)n3C)n2C)n(C)c1=O | > 200 | > 200 | 
COc1cc2c(cc1O)[C@@]1(Cc3ccc(OC)c(OC)c3)CCC(=O)N1CC2 |  |  | inactive
NC(=O)C1C2CC3C(NC(=O)C31)C2O (centres undefined) | > 200 | > 200 | 
N#CC(NC12CC3CC(CC(C3)C1)C2)c1ccc2c(c1)OCO2 (centres undefined) |  |  | inactive
COC(=O)C1=C(/C=C/C(C)=O)NC(C)=C(C(=O)OC(C)C)C1c1ccccc1Cl (centres undefined) | > 200 | 0.575 | 
O=c1c2nn3c(=O)n(-c4ccccc4)c(=O)c3nn2c(=O)n1-c1ccccc1 | > 200 | > 200 | 

Structure (SMILES) | EC50 [µM] | IC50 [µM] | outcome
OCCSCc1cc2c(O)c(c1)Cc1cc(CSCCO)cc(c1O)Cc1cc(CSCCO)cc(c1O)Cc1cc(CSCCO)cc(c1O)C2 | > 24 | 5.01 | 
CC(=O)Oc1c(C)c2c(c3ccccc13)OC(C)(C)C2 | > 200 | 24 | 
Nc1ccc(S(=O)(=O)S(=O)(=O)c2ccc(N)cc2)cc1 | > 200 | 112 | 
CC(C)C1OC(=O)/C=C/C=C/C=C/C=C/C=C/CC(O)CC(O)CC(O)CC(O)CC(O)CC(O)CC(O)CC(O)/C=C/C1C (centres undefined) | > 200 | > 200 | 
N#Cc1ccc(N=NN2CCCC2)cc1 | > 200 | 17.8 | 
C=CCOc1cc(NC(=S)c2ccoc2C)ccc1OC | 0.141 | 117 | 
NC(=O)c1ccc2c(c1)S(=O)(=O)c1ccccc1C2=O | > 200 | > 200 | 
C(/C=C/c1ccccc1)=Nc1ccc(CCc2ccc(N=C/C=C/c3ccccc3)cc2)cc1 | > 1.23 | > 1.23 | 
O=C1[C@@H]2C(c3ccc(Br)cc3)=NO[C@@H]2C(=O)N1c1ccc(Cc2ccc(N3C(=O)[C@H]4C(c5ccc(Br)cc5)=NO[C@H]4C3=O)cc2)cc1 | > 9.55 | > 9.55 | 
CC1OC(OC2C(O)COC(OC3C(C)OC(OC4C(OC(=O)[C@]56CCC(C)(C)C[C@@H]5C5=CCC7[C@@]8(C)C[C@H](O)[C@H](OC9OC(CO)C(O)C(O)C9O)[C@@](C)(CO)[C@@H]8CC[C@@]7(C)[C@]5(C)CC6)OCC(O)C4O)C(O)C3O)C2O)C(O)C(O)C1O (some centres undefined) | > 100 | 29.5 | 
CN(C)c1nncc2[nH]cnc12 | > 200 | > 200 | 
CCOP(=O)(OCC)/C(C#N)=C/c1ccccc1O | > 891 | > 891 | 
c1cnc2nc3c4ccccc4c4ccccc4c3nc2c1 | > 35.5 | > 35.5 | 
O=C(NCCCN1CCN(CCCNC(=O)c2cc(-c3ccccc3)nc3ccccc23)CC1)c1cc(-c2ccccc2)nc2ccccc12 | > 20 | 2.4 | 
O=C1OC(C(O)CO)C(O)=C1O (centres undefined) |  |  | inactive
O=C(Cc1ccccc1)NCCCN(CCCCN(CCCNC(=O)Cc1ccccc1)C(=O)OCc1ccccc1)C(=O)OCc1ccccc1 |  |  | inactive
Nc1ncnc2c1ccn2COC(CO)CO | > 200 | > 200 | 
Cc1ccc(S(=O)(=O)SSSSS(=O)(=O)c2ccc(C)cc2)cc1 | > 30.9 | > 30.9 | 
CC(=O)OCc1nnn2c1CCC2 |  |  | inactive
O=C(Cn1c2c(c3ccccc31)CCCC2)N1CCCC1 | > 200 | > 200 | 
CCC[CH2][Sn]([CH2]CCC)([CH2]CCC)/[C](=C/[Si](C)(C)c1ccccc1)c1ccc2c(c1)OCO2 | > 3.47 | > 3.47 | 
O=C(CNc1c(Cl)cccc1Cl)NC1C=Cc2ccc(S(=O)(=O)Nc3c(Cl)cccc3Cl)cc2C1=O (centres undefined) | > 200 | 123 | 

Structure (SMILES) | EC50 [µM] | IC50 [µM] | outcome
Cc1cn(C2CC(N=[N+]=[N-])C(COC(=O)C3CCC(=O)N3)O2)c(=O)[nH]c1=O (centres undefined) |  | 49 | active
CCC[CH2][Sn]([CH2]CCC)([O]C(=O)c1cccc(F)c1F)[O]C(=O)c1cccc(F)c1F | > 9.55 | 3.55 | 
CC1=NN(C(=O)c2ccccc2)C(C)C1N=Nc1ccccc1C(=O)O (centres undefined) |  |  | inactive
CC(=O)C1C(=O)C(=O)N(c2ccccc2C(C)C)C1=O (centres undefined) |  |  | inactive
C=C1C(=O)C23OC2C1CCC(=O)C1(C)CC[C@H](OC(C)=O)C(C)(C)[C@H]1CC3O (some centres undefined) | > 200 | 1.2 | 
Cc1cc2c(cc1Cl)SC(NNC(=O)c1ccncc1)=NS2(=O)=O | > 200 | > 200 | 
O=C(NCCc1ccccc1)c1c(O)c2ccccc2[nH]c1=O | > 200 | > 200 | 
CC(C)NCC1CCc2cc(CO)c([N+](=O)[O-])cc2N1 (centres undefined) | > 200 | > 200 | 
COC(=O)Cc1cc(=O)n2c3ccccc3n(C)c2c1C#N | > 24.5 | > 24.5 | 
Cc1cc(NCCCCCCNc2cc(C)nc3cc(N(C)C)ccc23)c2ccc(N(C)C)cc2n1 |  |  | inactive
COc1ccc(/C=N/NC(=O)c2sc(=S)n(-c3ccccc3)c2N)cc1 | > 9.77 | > 9.77 | 
CN1C(=O)/C(=C2\SC(=O)N(CNc3ccc(Br)cc3)C2=O)c2ccccc21 | > 200 | 15.5 | 
COc1ccccc1/C=C(\C#N)c1ccccc1 | > 22.4 | 11 | 
Cc1cc(=O)oc2c(CNC(CO)C(=O)O)c(O)ccc12 (centres undefined) | > 200 | > 200 | 
COc1ncnc2c1ncn2C1OC(CO)(C(F)(F)F)C(O)C1O (centres undefined) | > 200 | > 200 | 
CC(=O)SC1CC(=O)C=C2CCC3C4CCC(=O)OC4(C)CCC3C21C (centres undefined) | > 200 | > 200 | 
CCC(C(=O)NC1CN2CCC1CC2)c1ccccc1 (centres undefined) | > 200 | 174 | 
Cc1ccc(-c2cnc(NC3OC(COC(=O)c4ccccc4)C(OC(=O)c4ccccc4)C(OC(=O)c4ccccc4)C3OC(=O)c3ccccc3)s2)cc1 (centres undefined) | > 200 | 13.8 | 
C[n+]1ccccc1/C=N/O | > 200 | > 200 | 
Cc1cc2oc(=O)[nH]c(=S)c2c(C)c1C | > 17 | > 17 | 

From PubChem BioAssay AID179 (DTP/NCI, 2004)
